Measured values published in article PMC7156458, “Synthetic biology based construction of biological activity-related library of fungal decalin-containing diterpenoid pyrones” (Nature Communications, 2020).
Values joined by “and” are separate entries in the source; they are usually repeats but may differ in a detail not shown here. Identical values can stand only once. Like-named read-outs stand apart in the source and are kept apart here.

Columns and labels:
Assay type in all cases: cell-based
[1] = tested on: MAGI cells; experiment: cytotoxicity in the anti-HIV assay (CC50); conditions: for Cytotoxicity: single determinations
[2] = cytotoxicity in Drosophila l(2)mbn cells; conditions: Drosophila, l(2)mbn cells (larval blood cell-derived)
Experimental: (§1) We screened the DDPs on the Drosophila assay system for cytotoxicity, inhibitory activity of innate immune signalling and insecticidal activity. The cytotoxicity of the DDPs was evaluated using two cell lines, embryonic macrophage-derived DL1 cells[58]–[60] and larval blood cell-derived l(2)mbn cells, and their IC50 values are listed in Supplementary Table 23.

[3] = tested on: l(2)mbn cells; experiment: cytotoxicity in Drosophila l(2)mbn cells; conditions: for Luminescence Raw1: replicate 1; for Luminescence Raw2: replicate 2; for IC50: Drosophila melanogaster, cytotoxicity
Experimental: as §1

[4] = tested on: human immunodeficiency virus-1 (HIV-1); experiment: anti-HIV MAGI assay; conditions: Human immunodeficiency virus 1, MAGI, anti-HIV
Source text: We examined the inhibitory activities of DDPs against various species of bacteria (both gram-negative and gram-positive bacteria), fungi and viruses. […] In contrast, preliminary screening of the DDPs for anti-viral agents with hepatitis B virus (HBV), measles virus (MV), Epstein-Barr virus (EBV), herpes simplex virus (HSV) and human immunodeficiency virus-1 (HIV-1) indicated their selective inhibition of HIV.

[5] = cytotoxicity in Drosophila DL1 cells; conditions: Drosophila, DL1 cells (embryonic macrophage-derived), DL1 cells
Experimental: as §1

[6] = tested on: DL1 cells; experiment: cytotoxicity in Drosophila DL1 cells; conditions: DL1 cells; for IC50: Drosophila melanogaster, cytotoxicity
Experimental: as §1

[7] = replicate 1, relative to DMSO 1%, read-out: % viability, viability 1
[8] = replicate 2, relative to DMSO 1%, read-out: % viability, viability 2
[9] = average of numeric determinations, read-out: Avg. EC50
[10] = average of two replicates, read-out: IC50 Average
[11] = replicate 1, read-out: IC50 (1)
[12] = replicate 2, read-out: IC50 (2)

C=C1CCC2C(C)(CC(=O)C=C(C)C)C(O)CCC2(C)C1Cc1c(O)c(C)c(C)oc1=O (centres unmarked) [Compound 7]
Cytotoxicity [1]: >10 µM | viability at 0.04 µM [2, 7]: 135% | viability at 0.04 µM [2, 8]: 130% | viability at 0.2 µM [2, 7]: 129% | viability at 0.2 µM [2, 8]: 135% | viability at 1 µM [2, 7]: 139% | viability at 1 µM [2, 8]: 132% | viability at 4 µM [2, 7]: 129% | viability at 4 µM [2, 8]: 131% | viability at 10 µM [2, 7]: 121% | viability at 10 µM [2, 8]: 115% | viability at 20 µM [2, 7]: 40.7% | viability at 20 µM [2, 8]: 39.5% | Luminescence Raw1 ([3]; 0.04 µM): 3452362 | Luminescence Raw2 ([3]; 0.04 µM): 3328631 | Luminescence Raw1 ([3]; 0.2 µM): 3304462 | Luminescence Raw2 ([3]; 0.2 µM): 3461380 | Luminescence Raw1 ([3]; 1 µM): 3578980 | Luminescence Raw2 ([3]; 1 µM): 3388873 | Luminescence Raw1 ([3]; 4 µM): 3312398 | Luminescence Raw2 ([3]; 4 µM): 3370476 | Luminescence Raw1 ([3]; 10 µM): 3097048 | Luminescence Raw2 ([3]; 10 µM): 2956371 | Luminescence Raw1 ([3]; 20 µM): 1044161 | Luminescence Raw2 ([3]; 20 µM): 1013149 | IC50 ([3]; average±SEM, read-out: IC50): > 20 µM | EC50 [4, 9]: 0.163 µM | viability at 0.04 µM [5, 7]: 129% | viability at 0.04 µM [5, 8]: 132% | viability at 0.2 µM [5, 7]: 133% | viability at 0.2 µM [5, 8]: 135% | viability at 1 µM [5, 7]: 120% | viability at 1 µM [5, 8]: 138% | viability at 4 µM [5, 7]: 83.5% | viability at 4 µM [5, 8]: 117% | viability at 10 µM [5, 7]: 36.5% | viability at 10 µM [5, 8]: 39.8% | viability at 20 µM [5, 7]: 13.4% | viability at 20 µM [5, 8]: 14.2% | Luminescence Raw1 ([6]; 0.04 µM, replicate 1): 2666434 | Luminescence Raw2 ([6]; 0.04 µM, replicate 2): 2708996 | Luminescence Raw1 ([6]; 0.2 µM, replicate 1): 2732080 | Luminescence Raw2 ([6]; 0.2 µM, replicate 2): 2789792 | Luminescence Raw1 ([6]; 1 µM, replicate 1): 2478515 | Luminescence Raw2 ([6]; 1 µM, replicate 2): 2838847 | Luminescence Raw1 ([6]; 4 µM, replicate 1): 1720040 | Luminescence Raw2 ([6]; 4 µM, replicate 2): 2405658 | Luminescence Raw1 ([6]; 10 µM, replicate 1): 751779 | Luminescence Raw2 ([6]; 10 µM, replicate 2): 819211 | Luminescence Raw1 ([6]; 20 µM, replicate 1): 275091 | Luminescence Raw2 ([6]; 20 µM, replicate 2): 293480 | IC50 [6, 10]: 8.75 µM | IC50 ([6]; average±SEM, read-out: IC50): 8.75 ± 0.64 µM | IC50 [6, 11]: 8.12 µM | IC50 [6, 12]: 9.39 µM

C=C1CCC2C(C)(CCC=C(C)C)C(=O)CCC2(C)C1Cc1c(O)c(C)c(C)oc1=O (centres unmarked) [Compound 8]
Cytotoxicity Avg. ([1]; average of numeric determinations): 8.816 µM | Cytotoxicity [1]: 9.604 µM and 7.239 µM | viability at 0.04 µM [2, 7]: 86% | viability at 0.04 µM [2, 8]: 82.2% | viability at 0.2 µM [2, 7]: 87.7% | viability at 0.2 µM [2, 8]: 91.3% | viability at 1 µM [2, 7]: 86.7% | viability at 1 µM [2, 8]: 91.8% | viability at 4 µM [2, 7]: 70.7% | viability at 4 µM [2, 8]: 85.1% | viability at 10 µM [2, 7]: 2.83% | viability at 10 µM [2, 8]: 2.94% | viability at 20 µM [2, 7]: 1.82% | viability at 20 µM [2, 8]: 2.53% | Luminescence Raw1 ([3]; 0.04 µM): 5399824 | Luminescence Raw2 ([3]; 0.04 µM): 5163481 | Luminescence Raw1 ([3]; 0.2 µM): 5509158 | Luminescence Raw2 ([3]; 0.2 µM): 5734687 | Luminescence Raw1 ([3]; 1 µM): 5444928 | Luminescence Raw2 ([3]; 1 µM): 5762112 | Luminescence Raw1 ([3]; 4 µM): 4437905 | Luminescence Raw2 ([3]; 4 µM): 5343895 | Luminescence Raw1 ([3]; 10 µM): 177623 | Luminescence Raw2 ([3]; 10 µM): 184474 | Luminescence Raw1 ([3]; 20 µM): 114164 | Luminescence Raw2 ([3]; 20 µM): 158874 | IC50 [3, 10]: 5.14 µM | IC50 ([3]; average±SEM, read-out: IC50): 5.14 ± 0.3 µM | IC50 [3, 11]: 4.83 µM | IC50 [3, 12]: 5.44 µM | EC50 [4, 9]: 0.0232 µM | viability at 0.04 µM [5, 7]: 189% | viability at 0.04 µM [5, 8]: 219% | viability at 0.2 µM [5, 7]: 185% | viability at 0.2 µM [5, 8]: 208% | viability at 1 µM [5, 7]: 129% | viability at 1 µM [5, 8]: 131% | viability at 4 µM [5, 7]: 18.2% | viability at 4 µM [5, 8]: 20.6% | viability at 10 µM [5, 7]: 22.8% | viability at 10 µM [5, 8]: 24.1% | viability at 20 µM [5, 7]: 21.6% | viability at 20 µM [5, 8]: 21.3% | Luminescence Raw1 ([6]; 0.04 µM, replicate 1): 2594102 | Luminescence Raw2 ([6]; 0.04 µM, replicate 2): 2999528 | Luminescence Raw1 ([6]; 0.2 µM, replicate 1): 2536752 | Luminescence Raw2 ([6]; 0.2 µM, replicate 2): 2851638 | Luminescence Raw1 ([6]; 1 µM, replicate 1): 1767451 | Luminescence Raw2 ([6]; 1 µM, replicate 2): 1791254 | Luminescence Raw1 ([6]; 4 µM, replicate 1): 250019 | Luminescence Raw2 ([6]; 4 µM, replicate 2): 282109 | Luminescence Raw1 ([6]; 10 µM, replicate 1): 313118 | Luminescence Raw2 ([6]; 10 µM, replicate 2): 331147 | Luminescence Raw1 ([6]; 20 µM, replicate 1): 296893 | Luminescence Raw2 ([6]; 20 µM, replicate 2): 291484 | IC50 [6, 10]: 5.02 µM | IC50 ([6]; average±SEM, read-out: IC50): 5.02 ± 0.22 µM | IC50 [6, 11]: 4.8 µM | IC50 [6, 12]: 5.25 µM

C=C1CC[C@@H]2[C@](C)(CC[C@H]3O[C@H](C=C(C)C)C[C@@]23C)[C@@H]1Cc1c(O)c(C)c(C)oc1=O [Compound 10, higginsianin A]
Cytotoxicity [1]: >10 µM | viability at 0.04 µM [2, 7]: 113% | viability at 0.04 µM [2, 8]: 127% | viability at 0.2 µM [2, 7]: 108% | viability at 0.2 µM [2, 8]: 125% | viability at 1 µM [2, 7]: 20.3% | viability at 1 µM [2, 8]: 41.9% | viability at 4 µM [2, 7]: 7.39% | viability at 4 µM [2, 8]: 9.05% | viability at 10 µM [2, 7]: 6.87% | viability at 10 µM [2, 8]: 7.85% | viability at 20 µM [2, 7]: 5.83% | viability at 20 µM [2, 8]: 6.46% | Luminescence Raw1 ([3]; 0.04 µM): 2899849 | Luminescence Raw2 ([3]; 0.04 µM): 3256235 | Luminescence Raw1 ([3]; 0.2 µM): 2762422 | Luminescence Raw2 ([3]; 0.2 µM): 3200684 | Luminescence Raw1 ([3]; 1 µM): 521407 | Luminescence Raw2 ([3]; 1 µM): 1075282 | Luminescence Raw1 ([3]; 4 µM): 189680 | Luminescence Raw2 ([3]; 4 µM): 232227 | Luminescence Raw1 ([3]; 10 µM): 176340 | Luminescence Raw2 ([3]; 10 µM): 201579 | Luminescence Raw1 ([3]; 20 µM): 149658 | Luminescence Raw2 ([3]; 20 µM): 165883 | IC50 [3, 10]: 0.63 µM | IC50 ([3]; average±SEM, read-out: IC50): 0.63 ± 0.1 µM | IC50 [3, 11]: 0.529 µM | IC50 [3, 12]: 0.734 µM | EC50 ([4]; MAGI assay, read-out: EC50): < 0.2 µM | EC50 [4, 9]: 0.0532 µM | viability at 0.04 µM [5, 7]: 82.7% | viability at 0.04 µM [5, 8]: 85.6% | viability at 0.2 µM [5, 7]: 36.2% | viability at 0.2 µM [5, 8]: 35% | viability at 1 µM [5, 7]: 7.23% | viability at 1 µM [5, 8]: 6.51% | viability at 4 µM [5, 7]: 4.76% | viability at 4 µM [5, 8]: 6.46% | viability at 10 µM [5, 7]: 7.6% | viability at 10 µM [5, 8]: 6.95% | viability at 20 µM [5, 7]: 5.78% | viability at 20 µM [5, 8]: 5.81% | Luminescence Raw1 ([6]; 0.04 µM, replicate 1): 1703467 | Luminescence Raw2 ([6]; 0.04 µM, replicate 2): 1762974 | Luminescence Raw1 ([6]; 0.2 µM, replicate 1): 745666 | Luminescence Raw2 ([6]; 0.2 µM, replicate 2): 721146 | Luminescence Raw1 ([6]; 1 µM, replicate 1): 148910 | Luminescence Raw2 ([6]; 1 µM, replicate 2): 134127 | Luminescence Raw1 ([6]; 4 µM, replicate 1): 98071 | Luminescence Raw2 ([6]; 4 µM, replicate 2): 133046 | Luminescence Raw1 ([6]; 10 µM, replicate 1): 156482 | Luminescence Raw2 ([6]; 10 µM, replicate 2): 143141 | Luminescence Raw1 ([6]; 20 µM, replicate 1): 118984 | Luminescence Raw2 ([6]; 20 µM, replicate 2): 119705 | IC50 [6, 10]: 0.133 µM | IC50 ([6]; average±SEM, read-out: IC50): 0.13 ± 0.01 µM | IC50 [6, 11]: 0.132 µM | IC50 [6, 12]: 0.133 µM
